Test results taken from patent US4753953A, “Pyridonecarboxylic acid derivatives and antibacterial pharmaceutical compositions thereof” (priority 1985, dated 1988).
≈ marks a conversion by molar mass, not a printed value. Read-outs that look alike come from different tables or passages of the source.

What was measured:
[1] = system: Citrobacter freundii IID 976; assay: MIC, in vitro antibacterial activity (standard strains); format: cell-based; settings: Citrobacter freundii, IID976; 10^6 cells/ml; Gram -; read-out: MIC
[2] = system: Morganella morganii IID 602; assay: as above; format: cell-based; settings: Morganella morganii, IID602; 10^6 cells/ml; Gram -; read-out: MIC
P. cepacia GIFU 518 = assay: as above; format: cell-based; settings: Burkholderia cepacia, GIFU518
[3] = system: Eubacterium lentum GAI 5242; assay: as above; format: cell-based; settings: Eggerthella lenta, GAI5242; 10^6 cells/ml; Gram +; read-out: MIC
C. ramosum = assay: as above; format: cell-based; settings: Thomasclavelia ramosa; 10^6 cells/ml; Gram +; read-out: MIC
E. faecalis IID 682 = assay: as above; format: cell-based; settings: Enterococcus faecalis, IID682; 10^6 cells/ml; Gram +; read-out: MIC
B. fragilis 25285 = assay: as above; format: cell-based, Bacteroides fragilis; settings: Bacteroides fragilis, 25285; 10^6 cells/ml; Gram -; read-out: MIC
Shigella sonnei IID 969 = assay: as above; format: cell-based; settings: Shigella sonnei, IID969; 10^6 cells/ml; Gram -; read-out: MIC
Protocol: Minimal inhibitory concentrations (MICs) were determined in accordance with the method recommended by Japan Society of Chemotherapy.

S. aureus Smith = assay: as above; format: cell-based, Staphylococcus aureus; settings: Staphylococcus aureus; 10^6 cells/ml; Gram +; read-out: MIC
E. coli ATCC 10536 = assay: as above; format: cell-based, Escherichia coli; settings: Escherichia coli, ATCC10536; 10^6 cells/ml; Gram -; read-out: MIC
P. mirabilis IID 994 = assay: as above; format: cell-based; settings: Proteus mirabilis, IID994; 10^6 cells/ml; Gram -; read-out: MIC
[4] = system: B. thetaiotaomicron (0661); assay: as above; format: cell-based; settings: Bacteroides thetaiotaomicron; 10^6 cells/ml; Gram -; read-out: MIC
F. varium KYA 8501 = assay: as above; format: cell-based; settings: Fusobacterium varium, KYA8501; 10^6 cells/ml; Gram -; read-out: MIC
P. aeruginosa IID 1210 = assay: as above; format: cell-based, Pseudomonas aeruginosa; settings: Pseudomonas aeruginosa, IID1210; 10^6 cells/ml; Gram -; read-out: MIC
[5] = system: Bacteroides fragilis GM 7000; assay: as above; format: cell-based; settings: Bacteroides fragilis, GM7000; 10^6 cells/ml; Gram -; read-out: MIC
S. pyogenes IID 692 = assay: as above; format: cell-based, Streptococcus pyogenes; settings: Streptococcus pyogenes, IID692; 10^6 cells/ml; Gram +; read-out: MIC
B. distasonis 8503 = assay: as above; format: cell-based; settings: Parabacteroides distasonis, 8503; 10^6 cells/ml; Gram -; read-out: MIC
[6] = system: Proteus vulgaris IFO 3167; assay: as above; format: cell-based; settings: Proteus vulgaris, IFO3167; 10^6 cells/ml; Gram -; read-out: MIC
[7] = system: Serratia marcescens IID 618; assay: as above; format: cell-based; settings: Serratia marcescens, IID618; 10^6 cells/ml; Gram -; read-out: MIC
[8] = system: Pseudomonas aeruginosa V-1; assay: as above; format: cell-based; settings: Pseudomonas aeruginosa, V1
[9] = system: Klebsiella pneumoniae KY(GN)6445; assay: as above; format: cell-based; settings: Klebsiella pneumoniae; 10^6 cells/ml; Gram -; read-out: MIC
B. fragilis 0558 = assay: as above; format: cell-based, Bacteroides fragilis; settings: Bacteroides fragilis, 0558; 10^6 cells/ml; Gram -; read-out: MIC
[10] = system: Yersinia enterocolitica IID 981; assay: as above; format: cell-based; settings: Yersinia enterocolitica, IID981; 10^6 cells/ml; Gram -; read-out: MIC
[11] = system: Salmonella enteritidis IID 604; assay: as above; format: cell-based; settings: Salmonella enterica; 10^6 cells/ml; Gram -; read-out: MIC
S. epidermidis IID 866 = assay: as above; format: cell-based; settings: Staphylococcus epidermidis, IID866; 10^6 cells/ml; Gram +; read-out: MIC
[12] = system: Peptostreptococcus anaerobius KYA 27337; assay: as above; format: cell-based; settings: Peptostreptococcus anaerobius, KYA27337; 10^6 cells/ml; Gram +; read-out: MIC
[13] = system: Streptococcus pyogenes (S-8); assay: as above; format: cell-based; settings: Streptococcus pyogenes; 10^6 cells/ml; Gram +; read-out: MIC
[14] = system: Staphylococcus aureus 209 P; assay: as above; format: cell-based; settings: Staphylococcus aureus, 209P; 10^6 cells/ml; Gram +; read-out: MIC
[15] = system: Alcaligenes faecalis 0114002; assay: as above; format: cell-based; settings: Alcaligenes faecalis, 0114002; 10^6 cells/ml; Gram -; read-out: MIC
[16] = system: Enterobacter cloacae IID 977; assay: as above; format: cell-based; settings: Enterobacter cloacae, IID977; 10^6 cells/ml; Gram -; read-out: MIC
C. perfringens KYA 13123 = assay: microbe, parasite or virus in culture; format: cell-based; settings: Clostridium perfringens, KYA13123
[17] = system: Fusobacterium mortiferum 4249; assay: MIC, in vitro antibacterial activity (standard strains); format: cell-based; settings: Fusobacterium mortiferum, 4249; 10^6 cells/ml; Gram -; read-out: MIC

Question: With `C[C@H]1CN(c2c(F)cc3c(=O)c(C(=O)O)cn(CCF)c3c2F)C[C@H]1N` (relative stereo) [Example 25, 7-(cis-b 3-Amino-4-methyl-1-pyrrolidinyl)-6,8-difluoro-1-(2-fluoroethyl)-1,4-dihydro-4-oxo-3-quinolinecarboxylic acid] as the compound, how does the MIC [1] read?
Answer: 0.1 µg/mL (≈ 0.271 µM)

Question: What about the MIC [2] of the same compound?
Answer: 0.1 µg/mL (≈ 0.271 µM)

Question: What about the MIC (P. cepacia GIFU 518) of the same compound?
Answer: 1.56 µg/mL (≈ 4.22 µM)

Question: And the MIC [3]?
Answer: 1.56 µg/mL (≈ 4.22 µM)

Question: And the MIC (C. ramosum)?
Answer: 25 µg/mL (≈ 67.7 µM)

Question: And the MIC (E. faecalis IID 682)?
Answer: 0.78 µg/mL (≈ 2.11 µM)

Question: What about the MIC (B. fragilis 25285) of the same compound?
Answer: 3.13 µg/mL (≈ 8.47 µM)

Question: What about the MIC (Shigella sonnei IID 969) of the same compound?
Answer: 0.78 µg/mL (≈ 2.11 µM)

Question: What about the MIC (S. aureus Smith) of the same compound?
Answer: 0.39 µg/mL (≈ 1.06 µM)

Question: What about the MIC (E. coli ATCC 10536) of the same compound?
Answer: 0.05 µg/mL (≈ 0.135 µM)

Question: What about the MIC (P. mirabilis IID 994) of the same compound?
Answer: 0.1 µg/mL (≈ 0.271 µM)

Question: What about the MIC [4] of the same compound?
Answer: 6.25 µg/mL (≈ 16.9 µM)

Question: What about the MIC (F. varium KYA 8501) of the same compound?
Answer: 6.25 µg/mL (≈ 16.9 µM)

Question: And the MIC (P. aeruginosa IID 1210)?
Answer: 6.25 µg/mL (≈ 16.9 µM)

Question: What about the MIC [5] of the same compound?
Answer: 6.25 µg/mL (≈ 16.9 µM)

Question: And the MIC (S. pyogenes IID 692)?
Answer: 0.78 µg/mL (≈ 2.11 µM)

Question: What about the MIC (B. distasonis 8503) of the same compound?
Answer: 6.25 µg/mL (≈ 16.9 µM)

Question: What about the MIC [6] of the same compound?
Answer: 0.05 µg/mL (≈ 0.135 µM)

Question: What about the MIC [7] of the same compound?
Answer: 0.1 µg/mL (≈ 0.271 µM)

Question: What about the MIC [8] of the same compound?
Answer: 0.78 µg/mL (≈ 2.11 µM)

Question: And the MIC [9]?
Answer: 0.1 µg/mL (≈ 0.271 µM)

Question: What about the MIC (B. fragilis 0558) of the same compound?
Answer: 3.13 µg/mL (≈ 8.47 µM)

Question: What about the MIC [10] of the same compound?
Answer: 0.1 µg/mL (≈ 0.271 µM)

Question: What about the MIC [11] of the same compound?
Answer: 0.1 µg/mL (≈ 0.271 µM)

Question: And the MIC (S. epidermidis IID 866)?
Answer: 0.39 µg/mL (≈ 1.06 µM)

Question: And the MIC [12]?
Answer: 3.13 µg/mL (≈ 8.47 µM)

Question: And the MIC [13]?
Answer: 0.78 µg/mL (≈ 2.11 µM)

Question: What about the MIC [14] of the same compound?
Answer: 0.2 µg/mL (≈ 0.542 µM)

Question: And the MIC [15]?
Answer: 0.78 µg/mL (≈ 2.11 µM)

Question: What about the MIC [16] of the same compound?
Answer: 0.1 µg/mL (≈ 0.271 µM)

Question: What about the MIC (C. perfringens KYA 13123) of the same compound?
Answer: 0.78 µg/mL (≈ 2.11 µM)

Question: And the MIC [17]?
Answer: 3.13 µg/mL (≈ 8.47 µM)

Question: Which results are given for `C[C@H]1CN(c2c(F)cc3c(=O)c(C(=O)O)cn(CCF)c3c2Cl)C[C@H]1N` (relative stereo) [Example 27, 7-(cis-3-Amino-4-methyl-1-pyrrolidinyl)-8-chloro-6-fluoro-1-(2-fluoroethyl)-1,4-dihydro-4-oxo-3-quinolinecarboxylic acid]?
Answer: MIC [1]: 0.1 µg/mL (≈ 0.259 µM); MIC [2]: 0.1 µg/mL (≈ 0.259 µM); MIC (P. cepacia GIFU 518): 0.78 µg/mL (≈ 2.02 µM); MIC [3]: 0.78 µg/mL (≈ 2.02 µM); MIC (C. ramosum): 25 µg/mL (≈ 64.8 µM); MIC (E. faecalis IID 682): 0.78 µg/mL (≈ 2.02 µM); MIC (B. fragilis 25285): 1.56 µg/mL (≈ 4.04 µM); MIC (Shigella sonnei IID 969): 0.78 µg/mL (≈ 2.02 µM); MIC (S. aureus Smith): 0.2 µg/mL (≈ 0.518 µM); MIC (E. coli ATCC 10536): 0.05 µg/mL (≈ 0.13 µM); MIC (P. mirabilis IID 994): 0.1 µg/mL (≈ 0.259 µM); MIC [4]: 3.13 µg/mL (≈ 8.11 µM); MIC (F. varium KYA 8501): 6.25 µg/mL (≈ 16.2 µM); MIC (P. aeruginosa IID 1210): 6.25 µg/mL (≈ 16.2 µM); MIC [5]: 1.56 µg/mL (≈ 4.04 µM); MIC (S. pyogenes IID 692): 0.78 µg/mL (≈ 2.02 µM); MIC (B. distasonis 8503): 6.25 µg/mL (≈ 16.2 µM); MIC [6]: 0.05 µg/mL (≈ 0.13 µM); MIC [7]: 0.1 µg/mL (≈ 0.259 µM); MIC [8]: 0.39 µg/mL (≈ 1.01 µM); MIC [9]: 0.1 µg/mL (≈ 0.259 µM); MIC (B. fragilis 0558): 1.56 µg/mL (≈ 4.04 µM); MIC [10]: 0.1 µg/mL (≈ 0.259 µM); MIC [11]: 0.1 µg/mL (≈ 0.259 µM); MIC (S. epidermidis IID 866): 0.2 µg/mL (≈ 0.518 µM); MIC [12]: 1.56 µg/mL (≈ 4.04 µM); MIC [13]: 0.78 µg/mL (≈ 2.02 µM); MIC [14]: 0.2 µg/mL (≈ 0.518 µM); MIC [15]: 0.78 µg/mL (≈ 2.02 µM); MIC [16]: 0.1 µg/mL (≈ 0.259 µM); MIC (C. perfringens KYA 13123): 0.39 µg/mL (≈ 1.01 µM); MIC [17]: 1.56 µg/mL (≈ 4.04 µM)

Question: Which results are given for `CC1CN(c2c(F)cc3c(=O)c(C(=O)O)cn(C4CC4)c3c2Cl)CC1CN` (stereo not drawn) [Example 1, 7-(3-Aminomethyl-4-methyl-1-pyrrolidinyl)-8-chloro-1-cyclopropyl-6-fluoro-1,4-dihydro-4-oxo-3-quinolinecarboxylic acid]?
Answer: MIC [1]: 0.05 µg/mL (≈ 0.127 µM); MIC [2]: 0.1 µg/mL (≈ 0.254 µM); MIC (P. cepacia GIFU 518): 0.39 µg/mL (≈ 0.99 µM); MIC [3]: 0.2 µg/mL (≈ 0.508 µM); MIC (C. ramosum): 0.2 µg/mL (≈ 0.508 µM); MIC (E. faecalis IID 682): 0.05 µg/mL (≈ 0.127 µM); MIC (B. fragilis 25285): ≤ 0.05 µg/mL; MIC (Shigella sonnei IID 969): 0.025 µg/mL (≈ 0.0635 µM); MIC (S. aureus Smith): 0.0125 µg/mL (≈ 0.0317 µM); MIC (E. coli ATCC 10536): 0.025 µg/mL (≈ 0.0635 µM); MIC (P. mirabilis IID 994): 0.05 µg/mL (≈ 0.127 µM); MIC [4]: 0.1 µg/mL (≈ 0.254 µM); MIC (F. varium KYA 8501): 0.39 µg/mL (≈ 0.99 µM); MIC (P. aeruginosa IID 1210): 0.78 µg/mL (≈ 1.98 µM); MIC [5]: ≤ 0.1 µg/mL; MIC (S. pyogenes IID 692): 0.025 µg/mL (≈ 0.0635 µM); MIC (B. distasonis 8503): 0.39 µg/mL (≈ 0.99 µM); MIC [6]: 0.05 µg/mL (≈ 0.127 µM); MIC [7]: 0.1 µg/mL (≈ 0.254 µM); MIC ([8]; 10^6 cells/ml, Gram -, read-out: MIC): 0.1 µg/mL (≈ 0.254 µM); MIC [9]: 0.05 µg/mL (≈ 0.127 µM); MIC (B. fragilis 0558): ≤ 0.05 µg/mL; MIC [10]: 0.05 µg/mL (≈ 0.127 µM); MIC [11]: 0.05 µg/mL (≈ 0.127 µM); MIC (S. epidermidis IID 866): 0.0125 µg/mL (≈ 0.0317 µM); MIC [12]: ≤ 0.05 µg/mL; MIC [13]: 0.0125 µg/mL (≈ 0.0317 µM); MIC [14]: 0.0125 µg/mL (≈ 0.0317 µM); MIC [15]: 0.2 µg/mL (≈ 0.508 µM); MIC [16]: 0.05 µg/mL (≈ 0.127 µM); MIC (C. perfringens KYA 13123): ≤ 0.05 µg/mL; MIC [17]: ≤ 0.05 µg/mL
